According to US20060069132A1, “Azolecarboxamide herbicides” (priority 2004, published 2006):

Key:
[1] = test system: barnyardgrass; assay: Test B flooded paddy test; assay type: in vivo, Echinochloa crus-galli; conditions: 1000 g ai/ha, visual rating, scale 0 to 100 (0 no effect, 100 complete control), 13 to 15 days
How it was run: (§1)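 Each value is a visual 0–100 response rating taken against controls 13 to 15 days after treatment in the greenhouse. Plants received formulated chemical postemergence at the 1- to 4-leaf stage or, in flooded paddy, at the 2-leaf stage.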

[2] = test system: large crabgrass; assay: Test A pre-/postemergence herbicide test; assay type: in vivo, Digitaria sanguinalis
How it was run: (§2)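 Pre: seeded sandy loam, directed soil spray, compound in non-phytotoxic solvent + surfactant. Post: 1–2-leaf plants (2–10 cm), sprayed to runoff. Greenhouse ~10 d; visual injury vs untreated, 0–100 scale.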

[3] = test system: blackgrass; assay: Test B postemergence herbicide test; assay type: in vivo, Alopecurus myosuroides; conditions: scale 0 (no effect) to 100 (complete control)
How it was run: as §1

[4] = test system: small flower umbrella sedge; assay: Test B flooded paddy test; assay type: in vivo, Cyperus difformis; conditions: 1000 g ai/ha, visual rating, scale 0 to 100 (0 no effect, 100 complete control), 13 to 15 days
How it was run: as §1

[5] = test system: large crabgrass; assay: Test B pre-/postemergence herbicide test; assay type: in vivo, Digitaria sanguinalis
How it was run: (§3)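 Formulation: non-phytotoxic solvent mix with surfactant. Timing: preemergence on seed and postemergence on 2–18 cm plants, applied concurrently. Readout after 13–15 d greenhouse: visual 0–100 control rating against controls.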

[6] = test system: velvetleaf; assay: Test A pre-/postemergence herbicide test; assay type: in vivo, Abutilon theophrasti
How it was run: as §2

[7] = test system: velvetleaf; assay: Test B pre-/postemergence herbicide test; assay type: in vivo, Abutilon theophrasti
How it was run: as §3

[8] = test system: corn; assay: Test B pre-/postemergence herbicide test; assay type: in vivo, Zea mays
How it was run: as §3

[9] = test system: rice; assay: Test B flooded paddy test; assay type: in vivo, Oryza sativa; conditions: 1000 g ai/ha, visual rating, scale 0 to 100 (0 no effect, 100 complete control), 13 to 15 days
How it was run: (§4)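 Scale 0–100: zero equals no visible effect, 100 complete control, judged by eye relative to controls. Timing: 13 to 15 days in greenhouse post-treatment. Growth stage at spraying: two leaves (paddy) or one to four leaves, 2–18 cm (postemergence).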

[10] = test system: wheat; assay: Test B postemergence herbicide test; assay type: in vivo, Triticum aestivum; design: key to Wheat plant response rating: 0 = no effect, 100 = complete control; conditions: scale 0 (no effect) to 100 (complete control)
How it was run: as §4

[11] = test system: giant foxtail; assay: Test A pre-/postemergence herbicide test; assay type: in vivo, Setaria faberi
How it was run: as §2

[12] = test system: morningglory; assay: Test B pre-/postemergence herbicide test; assay type: in vivo, Ipomoea coccinea
How it was run: (§5)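 Evaluation is visual, comparing treated with control plants on a scale where 0 means no effect and 100 means full control. Treatments were preemergence, or postemergence on seedlings 2–18 cm tall, and held 13–15 days in the greenhouse.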

[13] = test system: rice; assay: Test B pre-/postemergence herbicide test; assay type: in vivo, Oryza sativa; conditions: preemergence
How it was run: as §3

[14] = test system: barnyardgrass; assay: Test A pre-/postemergence herbicide test; assay type: in vivo, Echinochloa crus-galli
How it was run: as §2

[15] = test system: pigweed; assay: Test B pre-/postemergence herbicide test; assay type: in vivo, Amaranthus retroflexus
How it was run: as §3

[16] = test system: wild oat; assay: Test B postemergence herbicide test; assay type: in vivo, Avena fatua; conditions: scale 0 (no effect) to 100 (complete control)
How it was run: as §4

[17] = test system: barnyardgrass; assay: Test B pre-/postemergence herbicide test; assay type: in vivo, Echinochloa crus-galli
How it was run: as §5

[18] = test system: morningglory; assay: Test A pre-/postemergence herbicide test; assay type: in vivo, Ipomoea spp.
How it was run: as §2

[19] = test system: Surinam grass; assay: Test B pre-/postemergence herbicide test; assay type: in vivo, Urochloa decumbens
How it was run: as §3

[20] = test system: lambsquarters; assay: Test B pre-/postemergence herbicide test; assay type: in vivo, Chenopodium album
How it was run: as §3

[21] = test system: ducksalad; assay: Test B flooded paddy test; assay type: in vivo, Heteranthera limosa; conditions: 1000 g ai/ha, visual rating, scale 0 to 100 (0 no effect, 100 complete control), 13 to 15 days
How it was run: as §1

[22] = test system: redroot pigweed; assay: Test A pre-/postemergence herbicide test; assay type: in vivo, Amaranthus retroflexus
How it was run: as §2

[23] = test system: cocklebur; assay: Test B pre-/postemergence herbicide test; assay type: in vivo, Xanthium strumarium
How it was run: as §5

[24] = test system: giant foxtail; assay: Test B pre-/postemergence herbicide test; assay type: in vivo, Setaria faberi
How it was run: as §3

[25] = Postemergence, 500 g ai/ha, 0 to 100 scale, 0 no effect, 100 complete control
[26] = Postemergence, 2000 g ai/ha, 0 to 100 scale, 0 no effect, 100 complete control
[27] = Preemergence, 500 g ai/ha, visual rating, 0 to 100 scale (0 no effect, 100 complete control)
[28] = Preemergence, 2000 g ai/ha, visual rating, 0 to 100 scale (0 no effect, 100 complete control)
[29] = Postemergence, 500 g ai/ha, visual rating after 13 to 15 days
[30] = postemergence, 125 g ai/ha, visual rating
[31] = 500 g ai/ha, visual rating 0-100, 0 no effect, 100 complete control, preemergence
[32] = Postemergence, 500 g ai/ha, visual rating after 13 to 15 days, scale 0 (no effect) to 100 (complete control)
[33] = postemergence, 125 g ai/ha, visual rating, scale 0 (no effect) to 100 (complete control)
[34] = preemergence, 125 g ai/ha, 0 to 100 scale, 0 is no effect, 100 is complete control

CCOC(=O)c1cccc(NC(=O)c2cc(C(C)(C)C)nn2CC)c1OC [Compound 97]
Barnyardgrass plant response rating [1]: 0 | Crabgrass, Large plant response rating [2, 25]: 10 | Plant response rating, Crabgrass, Large [2, 26]: 10 | Crabgrass, Large plant response rating [2, 27]: 0 | Crabgrass, Large plant response rating [2, 28]: 0 | Plant response rating, Blackgrass [3, 29]: 0 | Blackgrass plant response rating [3, 30]: 0 | Sedge, Umbrella plant response rating [4]: 70 | Plant response rating, Crabgrass, Large [5, 31]: 0 | Plant response rating, Crabgrass, Large [5, 32]: 0 | Crabgrass, Large plant response rating [5, 33]: 0 | Plant response rating, Crabgrass, Large [5, 34]: 0 | Velvetleaf plant response rating [6, 25]: 5 | Plant response rating, Velvetleaf [6, 26]: 10 | Velvetleaf plant response rating [6, 27]: 0 | Velvetleaf plant response rating [6, 28]: 0 | Plant response rating, Velvetleaf [7, 31]: 0 | Plant response rating, Velvetleaf [7, 32]: 60 | Velvetleaf plant response rating [7, 33]: 0 | Plant response rating, Velvetleaf [7, 34]: 0 | Plant response rating, Corn [8, 31]: 0 | Plant response rating, Corn [8, 32]: 0 | Corn plant response rating [8, 33]: 0 | Plant response rating, Corn [8, 34]: 0 | Rice plant response rating [9]: 0 | Plant response rating, Wheat [10, 29]: 0 | Wheat plant response rating [10, 30]: 0 | Foxtail, Giant plant response rating [11, 25]: 5 | Plant response rating, Foxtail, Giant [11, 26]: 10 | Foxtail, Giant plant response rating [11, 27]: 0 | Foxtail, Giant plant response rating [11, 28]: 0 | Plant response rating, Morningglory [12, 31]: 0 | Plant response rating, Morningglory [12, 32]: 0 | Morningglory plant response rating [12, 33]: 0 | Plant response rating, Morningglory [12, 34]: 0 | Plant response rating, Rice ([13]; 500 g ai/ha, visual rating 0-100, 0 no effect, 100 complete control): 0 | Plant response rating, Rice ([13]; 125 g ai/ha, 0 to 100 scale, 0 is no effect, 100 is complete control): 0 | Barnyardgrass plant response rating [14, 25]: 5 | Plant response rating, Barnyardgrass [14, 26]: 10 | Barnyardgrass plant response rating [14, 27]: 0 | Barnyardgrass plant response rating [14, 28]: 0 | Plant response rating, Pigweed [15, 31]: 0 | Plant response rating, Pigweed [15, 32]: 0 | Pigweed plant response rating [15, 33]: 0 | Plant response rating, Pigweed [15, 34]: 0 | Plant response rating, Oat, Wild [16, 29]: 0 | Oat, Wild plant response rating [16, 30]: 0 | Plant response rating, Barnyardgrass [17, 31]: 0 | Plant response rating, Barnyardgrass [17, 32]: 0 | Barnyardgrass plant response rating [17, 33]: 0 | Plant response rating, Barnyardgrass [17, 34]: 0 | Morningglory plant response rating [18, 25]: 0 | Plant response rating, Morningglory [18, 26]: 0 | Morningglory plant response rating [18, 27]: 0 | Morningglory plant response rating [18, 28]: 0 | Plant response rating, Surinam Grass [19, 31]: 0 | Plant response rating, Surinam Grass [19, 32]: 0 | Surinam Grass plant response rating [19, 33]: 0 | Plant response rating, Surinam Grass [19, 34]: 0 | Plant response rating, Lambsquarters [20, 31]: 0 | Plant response rating, Lambsquarters [20, 32]: 70 | Lambsquarters plant response rating [20, 33]: 50 | Plant response rating, Lambsquarters [20, 34]: 0 | Ducksalad plant response rating [21]: 50 | Pigweed plant response rating [22, 25]: 0 | Plant response rating, Pigweed [22, 26]: 25 | Pigweed plant response rating [22, 27]: 0 | Pigweed plant response rating [22, 28]: 0 | Plant response rating, Cocklebur [23, 31]: 0 | Plant response rating, Cocklebur [23, 32]: 70 | Cocklebur plant response rating [23, 33]: 0 | Plant response rating, Cocklebur [23, 34]: 0 | Plant response rating, Foxtail, Giant [24, 31]: 0 | Plant response rating, Foxtail, Giant [24, 32]: 0 | Foxtail, Giant plant response rating [24, 33]: 0 | Plant response rating, Foxtail, Giant [24, 34]: 0
